Source: US10323036B2 (Nimbus Lakshmi, Inc., priority 2016, dated 2019)
Like-named read-outs stand apart in the source and are kept apart here.

Experiments:
[1] = target: human TYK2 (JH2domain-pseudokinase) (Homo sapiens (Human), UniProt P29597); experiment: TYK2 JH2 Domain Binding Assay (KINOMEscan); details: read-out: JH2 Kd
[2] = target: JAK2 JH1 kinase (Homo sapiens (Human), UniProt O60674); experiment: JAK2 Radioactive Kinase Assay; format: biochemical; details: ATP at 10 μM
Method: (§1) Peptide substrate, [KKSRGDYMTMQIG (SEQ ID NO: 2)], (20 μM) is prepared in reaction buffer (20 mM Hepes pH 7.5, 10 mM MgCl2, 1 mM EGTA, 0.02% Brij35, 0.02 mg/mL BSA, […], 2 mM DTT, 1% DMSO. TYK2 (Invitrogen) kinase is added, followed by compounds in DMSO. 33PATP is added to initiate the reaction in ATP at 10 μM. Kinase reaction is incubated for 120 min at room temp and reactions are spotted onto P81 ion exchange paper (Whatman #3698-915), and then washed extensively in 0.75% phosphoric acid, prior to reading the radioactivity counts. For JAK2 (Invitrogen) kinase assay the peptide substrate poly[Glu:Tyr] (4:1), 0.2 mg/ml is used, in the reaction carried out the same as for TYK2.

[3] = target: TYK2 JH1 kinase (Homo sapiens (Human), UniProt P29597); experiment: Tyk2 Radioactive Kinase Assay; format: biochemical; details: ATP at 10 μM
Method: as §1

[4] = tested on: GM-CSF induced pSTAT5; experiment: GM-CSF Induced pSTAT5 in Human PBMC; format: cell-based; details: 5 ng/mL GM-CSF, read-out: IC50 of inhibition of pSTAT5 production
Method: Cells are prepared for analysis as in the above procedure and 15 μl of GM-CSF (final concentration 5 ng/mL) is added for 20 minutes prior to pSTAT5 and total STAT5 analysis using cell lysates prepared and analyzed by MSD reagents as per manufacturer protocol. The final DMSO concentration of compound in the assay is 0.1%.

[5] = Table 5, Tyk2 JH2 Domain Binding Assay

Sequence of JAK2 JH1 kinase (O60674 808-1132): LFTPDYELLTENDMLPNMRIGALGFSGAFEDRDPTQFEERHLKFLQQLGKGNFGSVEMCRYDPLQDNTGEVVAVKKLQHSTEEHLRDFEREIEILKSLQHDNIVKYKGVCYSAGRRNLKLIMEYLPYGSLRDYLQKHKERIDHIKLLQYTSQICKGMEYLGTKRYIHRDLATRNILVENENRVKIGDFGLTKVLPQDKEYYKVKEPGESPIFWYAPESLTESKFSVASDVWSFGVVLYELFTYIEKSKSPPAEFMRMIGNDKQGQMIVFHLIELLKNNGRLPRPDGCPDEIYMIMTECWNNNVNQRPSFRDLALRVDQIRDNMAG
Sequence of human TYK2 (JH2domain-pseudokinase) (P29597 556-888): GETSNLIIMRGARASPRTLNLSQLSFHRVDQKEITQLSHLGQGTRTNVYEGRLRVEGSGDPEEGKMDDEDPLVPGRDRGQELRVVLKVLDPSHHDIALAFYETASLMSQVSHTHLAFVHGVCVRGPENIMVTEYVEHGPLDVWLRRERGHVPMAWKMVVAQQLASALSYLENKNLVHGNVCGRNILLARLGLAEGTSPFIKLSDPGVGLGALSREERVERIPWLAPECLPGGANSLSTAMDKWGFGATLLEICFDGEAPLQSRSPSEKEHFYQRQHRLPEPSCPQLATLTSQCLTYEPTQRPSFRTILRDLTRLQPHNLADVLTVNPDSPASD
Sequence of TYK2 JH1 kinase (P29597 833-1187): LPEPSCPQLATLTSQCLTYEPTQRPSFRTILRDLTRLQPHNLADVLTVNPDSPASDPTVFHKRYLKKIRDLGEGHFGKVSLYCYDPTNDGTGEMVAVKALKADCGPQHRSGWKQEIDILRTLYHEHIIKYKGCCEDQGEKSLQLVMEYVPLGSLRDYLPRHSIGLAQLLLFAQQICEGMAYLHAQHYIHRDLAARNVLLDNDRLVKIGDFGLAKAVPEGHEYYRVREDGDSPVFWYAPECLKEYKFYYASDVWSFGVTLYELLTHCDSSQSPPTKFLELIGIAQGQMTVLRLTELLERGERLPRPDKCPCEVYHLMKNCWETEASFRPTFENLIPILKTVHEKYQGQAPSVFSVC

Kd ([1]; Table 4, JH2 binding assay) | SMILES | other results
 | COc1c(Nc2cc(NC(=O)C3CC3)ncc2-c2nnc(C(F)(F)F)o2)cccc1-c1ncn(C)n1 [VIII-3, N-(4-((2-methoxy-3-(1-methyl-1H-1,2,4-triazol-3-yl)phenyl)amino)-5-(5-(trifluoromethyl)-1,3,4-oxadiazol-2-yl)pyridin-2-yl)cyclopropanecarboxamide] | Kd [1, 5]: > 100 nM; inhibitory activity against JAK2 JH1 kinase function [2]: no detectable inhibitory activity; inhibitory activity against TYK2 JH1 kinase function [3]: no detectable inhibitory activity
 | COC(=O)c1nnc(-c2cnc(NC(=O)C3CC3)cc2Nc2cccc(-c3ncn(C)n3)c2OC)o1 [VIII-4, methyl 5-(6-(cyclopropanecarboxamido)-4-((2-methoxy-3-(1-methyl-1H-1,2,4-triazol-3-yl)phenyl)amino)pyridin-3-yl)-1,3,4-oxadiazole-2-carboxylate] | Kd [1, 5]: 1 to 10 nM; inhibitory activity against JAK2 JH1 kinase function [2]: no detectable inhibitory activity; inhibitory activity against TYK2 JH1 kinase function [3]: no detectable inhibitory activity
 | COc1c(Nc2cc(NC(=O)C3CC3)ncc2-c2ncc(Cl)s2)cccc1-c1nnn(C)n1 [VIII-1, N-(5-(5-chlorothiazol-2-yl)-4-((2-methoxy-3-(2-methyl-2H-tetrazol-5-yl)phenyl)amino)pyridin-2-yl)cyclopropanecarboxamide] | IC50 [4]: > 50000 nM; Kd [1, 5]: 1 to 10 nM
0.1 to 0.5 nM | COc1c(Nc2cc(Nc3cc(C)c(F)cn3)nc3[nH]n(C)c(=O)c23)cccc1-c1cnc[nH]1 [Compound I-133] | 
0.1 to 0.5 nM | COc1c(F)cccc1Nc1cc(Nc2ccc(C)nn2)nc2[nH]n(C)c(=O)c12 [Compound I-75, 4-((3-fluoro-2-methoxyphenyl)amino)-2-methyl-6-((6-methylpyridazin-3-yl)amino)-1,2-dihydro-3H-pyrazolo[3,4-b]pyridin-3-one] | 
< 0.1 nM | COc1c(Nc2cc(Nc3cc(C#N)ncn3)nc3[nH]n(C)c(=O)c23)cccc1-c1ncn(C)n1 [Compound I-31, 6-((4-((2-methoxy-3-(1-methyl-1H-1,2,4-triazol-3-yl)phenyl)amino)-2-methyl-3-oxo-2,3-dihydro-1H-pyrazolo[3,4-b]pyridin-6-yl)amino)pyrimidine-4-carbonitrile] | 
0.1 to 0.5 nM | COc1c(Cl)cccc1Nc1cc(Nc2ccc(C)c(C#N)n2)nc2[nH]n(C)c(=O)c12 [Compound I-132, 6-((4-((3-chloro-2-methoxyphenyl)amino)-2-methyl-3-oxo-2,3-dihydro-1H-pyrazolo[3,4-b]pyridin-6-yl)amino)-3-methylpicolinonitrile] | 
 | COc1c(Nc2cc(NC(=O)C3CC3)ncc2-c2noc(CO)n2)cccc1-c1ncn(C)n1 [VIII-9, N-(5-(5-(hydroxymethyl)-1,2,4-oxadiazol-3-yl)-4-((2-methoxy-3-(1-methyl-1H-1,2,4-triazol-3-yl)phenyl)amino)pyridin-2-yl)cyclopropanecarboxamide] | Kd [1, 5]: > 100 nM
 | COc1c(Nc2cc(NC(=O)C3CC3)ncc2-c2ncc(F)s2)cccc1-c1nnn(C)n1 [VIII-2, N-(5-(5-fluorothiazol-2-yl)-4-((2-methoxy-3-(2-methyl-2H-tetrazol-5-yl)phenyl)amino)pyridin-2-yl)cyclopropanecarboxamide] | Kd [1, 5]: 10 to 100 nM; inhibitory activity against JAK2 JH1 kinase function [2]: no detectable inhibitory activity; inhibitory activity against TYK2 JH1 kinase function [3]: no detectable inhibitory activity
0.1 to 0.5 nM | Cn1[nH]c2nc(Nc3ccc(C4CC4)cn3)cc(Nc3ccccc3S(C)(=O)=O)c2c1=O [Compound I-143, 6-((5-cyclopropylpyridin-2-yl)amino)-2-methyl-4-((2-(methylsulfonyl)phenyl)amino)-1,2-dihydro-3H-pyrazolo[3,4-b]pyridin-3-one] | 
0.1 to 0.5 nM | COCc1ccnc(Nc2cc(Nc3cccc(-c4nnn(C)n4)c3OC)c3c(=O)n(C)[nH]c3n2)c1 [Compound I-2, 4-((2-methoxy-3-(2-methyl-2H-tetrazol-5-yl)phenyl)amino)-6-((4-(methoxymethyl)pyridin-2-yl)amino)-2-methyl-1,2-dihydro-3H-pyrazolo[3,4-b]pyridin-3-one] | inhibitory activity against TYK2 JH1 kinase function [3]: no detectable inhibitory activity
0.1 to 0.5 nM | Cn1[nH]c2nc(NC(=O)[C@H]3CC3(F)F)cc(Nc3ccc(C4CC4)cc3S(C)(=O)=O)c2c1=O [Compound I-238, (R)-N-(4-((4-cyclopropyl-2-(methylsulfonyl)phenyl)amino)-2-methyl-3-oxo-2,3-dihydro-1H-pyrazolo[3,4-b]pyridin-6-yl)-2,2-difluorocyclopropane-1-carboxamide] | 
> 10 nM | COc1c(Cl)cccc1Nc1cc(Nc2cnc(C(C)C)c(C#N)n2)nc2[nH]n(C)c(=O)c12 [Compound I-158, 6-((4-((3-chloro-2-methoxyphenyl)amino)-2-methyl-3-oxo-2,3-dihydro-1H-pyrazolo[3,4-b]pyridin-6-yl)amino)-3-isopropylpyrazine-2-carbonitrile] | 
0.5 to 1 nM | Cn1[nH]c2nc(Nc3cccc(C(F)(F)F)n3)cc(Nc3ccc(Cl)cc3S(C)(=O)=O)c2c1=O [Compound I-209, 4-((4-chloro-2-(methylsulfonyl)phenyl)amino)-2-methyl-6-((6-(trifluoromethyl)-pyridin-2-yl)amino)-1,2-dihydro-3H-pyrazolo[3,4-b]pyridin-3-one] | 

SMILES | Kd ([1]; Table 4, JH2 binding assay) | other results
COc1c(Nc2cc(NC(=O)C3CC3)nc3[nH]n(C)c(=O)c23)cccc1-c1nnn(C)n1 [Compound I-1] | < 0.1 nM | inhibitory activity against TYK2 JH1 kinase function [3]: no detectable inhibitory activity
CN(c1ccccc1Nc1cc(Nc2cc3c(cn2)COC3)nc2[nH]n(C)c(=O)c12)S(C)(=O)=O [Compound I-227, N-(2-((6-((1,3-dihydrofuro[3,4-c]pyridin-6-yl)amino)-2-methyl-3-oxo-2,3-dihydro-1H-pyrazolo[3,4-b]pyridin-4-yl)amino)phenyl)-N-methylmethanesulfonamide] | < 0.1 nM | 
COc1c(Nc2cc(Nc3cc(C)nc(C)n3)nc3[nH]n(C)c(=O)c23)cccc1C(N)=O [Compound I-103, 3-((6-((2,6-dimethylpyrimidin-4-yl)amino)-2-methyl-3-oxo-2,3-dihydro-1H-pyrazolo[3,4-b]pyridin-4-yl)amino)-2-methoxybenzamide] | > 10 nM | 
COCc1ccc(Nc2cc(Nc3ccc(C(=O)N4CCCC4)c(C(F)(F)F)n3)nc3[nH]n(C)c(=O)c23)c(OC)c1 [Compound I-92, 4-((2-methoxy-4-(methoxymethyl)phenyl)amino)-2-methyl-6-((5-(pyrrolidine-1-carbonyl)-6-(trifluoromethyl)pyridin-2-yl)amino)-1,2-dihydro-3H-pyrazolo[3,4-b]pyridin-3-one] | 0.1 to 0.5 nM | 
CN(c1cc(C2CCCOC2)ccc1Nc1cc(NC(=O)C2CC2)nc2[nH]n(C)c(=O)c12)S(C)(=O)=O (stereo not shown) [Compound I-240] | 0.1 to 0.5 nM | 
